From patent publication US7745481B2, “Methods and compositions for the treatment and prevention of tumors, tumor-related disorders and cachexia” (Daiichi Sankyo Company, Limited, priority 1997, dated 2010)

Experiments:
Assay type in all cases: in vivo
[1] = test system: mouse colon cancer Colon 26 cells; experiment: Test of anticachexia effects in mice bearing mouse colon cancer Colon 26 cells; settings: for Inhibition of mouse tumor cachexia and recovery of body weight loss (in words): Example 4, written in present tense, no data; for Body Weight Recovery Rate (%): day 19, (Δgt−Δgc1)/(Δgc2−Δgc1)×100; for Weight Gain (Δg): day 19 after tumor cell transplantation, female CDF1 mice 8 weeks old; for Average Weight Gain (Δg): 22 days after tumor transplantation, female CDF1 mice 16 weeks old, control −4.2
Source text: The test animals were CDF1 mice (females, 8 weeks old). They were employed in groups of 10 for each test. 1×10^6 mouse colon cancer Colon 26 cells were transplanted subcutaneously into each animal.
The test compounds were Compounds No. 1-94 and 2-78 as shown above in Tables 1 and 2, respectively, and having the following formulae: […]
Each test compound was suspended in sterilized distilled water containing 0.5% w/v carboxymethyl cellulose (CMC) and administered orally once per day starting on the day of the tumor cell transplantation.
Each test animal was weighed immediately after tumor cell transplantation, and the weight (A g) was recorded. Each animal was then weighed on day 19 after tumor cell transplantation, and the weight (B g) was recorded. The weight gain on day 19 after tumor cell transplantation was calculated as B−A=Δgt for the test animals. The experiment was repeated with two control groups: the first control group (control group 1) was transplanted with the tumor cells but were not treated with any test compound, and the weight gain is reported as Δgc1; the second control group (control group 2) were not transplanted with the tumor cells and were not treated with any test compound, and the weight gain is reported as Δgc2. The body weight recovery rate was determined according to the following formula based on the weight gain on day 19 after tumor cell transplantation, and this value was used as an indicator of the anticachexia effect. Body weight recovery rate (%)=(Δgt−Δgc1)/(Δgc2−Δgc1)×100
(§1) The procedure described in Example 1 was repeated, but using the compound of formula (III) as the test compound, and comparing the weight gain (Δgt) of the test group of animals to which the compound of formula (III) had been administered with a control group (Δgc) into which the tumor cells had been transplanted but to which no anti-tumor compound had been administered. The test animals were female CDF1 mice, 16 weeks old. Also, the weight gain was measured 22 days after tumor transplantation. The average body weight of each group of animals immediately after tumor transplantation was 25 to 26 g.
as §1, with “Example 2” for “Example 1”, “formula (IV)” for “formula (III)”, “mice, 7” for “mice, 16”, “measured 15” for “measured 22”, “was 20” for “was 25”, “to 21” for “to 26”
Test compounds [the compounds of formula (V), (VI), (VII), (VIII), (IX), (X), (XI), (XII), (XIII) and (XIV)] are administered in the same manner as described in Example 2.

[2] = test system: mouse colon cancer Colon 26 cells; experiment: Life-prolonging activity test in mice bearing Colon 26 cells; settings: for Life-prolongation (in words): Example 7, animals of Examples 3 and 4, present tense, no data; for Life-prolonging Index (%): (St/Sc−1)×100
Experimental: Observation of the mice used in Example 1 above was continued. The life-prolonging index was determined, based on the number of days each mouse survived, and this value was then used as an indicator of the life-prolonging effects of the test compounds.
It should be noted that, in the case of the group of mice treated with a test compound, oral administration of the respective compound once daily was continued on day 20 after tumor cell transplantation and beyond as well. Life-prolonging index (%)=(St/Sc−1)×100 • St: Median value of survival time (days) of the group of mice treated with a test compound • Sc: Median value of survival time (days) of the control group which were […].
The experiment reported in Example 5 was repeated with the animals used in Example 2. In the case of the group of mice treated with a test compound, oral administration of the respective compound once daily was continued on day 23 after tumor cell transplantation and beyond as well.
The experiment reported in Example 5 is repeated with the animals used in Examples 3 and 4.

[3] = test system: mouse malignant melanoma B16-BL6 cells; experiment: Inhibitory effect on lung metastasis of mouse malignant melanoma B16-BL6 cells
Experimental: Groups of mice, each group containing ten C57BL/6 mice (female, age: 8 weeks) were transplanted intravenously into the tail vein with 3×10^4 of mouse malignant melanoma B16-BL6 cells.
The mice were, when necessary, administered intravenously into the tail vein with a bacterial lipopolysaccharide (LPS) in an amount of 3 μg each within one hour before transplantation of the melanoma cells so as to accelerate lung metastasis of the melanoma [M. J. Anasagasti et al., J. Natl. Cancer Research, 89, 645-651 (1997).]
As test compounds, Compound No. 2-118, a compound of formula (IV), a compound of formula (V) and indomethacin were employed, and each was suspended in sterilized distilled water containing 0.5% w/v of carboxymethyl cellulose (CMC), and the suspensions were orally administered at a dose of 1 mg/kg per day for five days starting from the day of the melanoma cell transplantation.
Inhibitory activities on lung metastasis of the melanoma cells were evaluated in terms of the lung metastasis inhibitory rate (LMI %) by counting the number of metastatic colonies in the lung on the 10th day after intravenous transplantation of the mouse malignant melanoma B16-BL6 cells at the tail. LMI(%)=(1−Nt/Nc)×100 • Nt: Numbers of lung metastatic colonies on the 10th day in groups administered with the test compounds; and • Nc: Numbers of lung metastatic colonies on the 10th day in control groups which were not administered with the test compounds.

[4] = 1 mg/kg oral once daily, mice of Example 1
[5] = 1 mg/kg oral once daily, mice of Example 1, untreated 29.0
[6] = 3 mg/kg oral once daily, mice of Example 1
[7] = 3 mg/kg oral once daily, mice of Example 1, untreated 29.0
[8] = 10 mg/kg oral once daily, mice of Example 1
[9] = 10 mg/kg oral once daily, mice of Example 1, untreated 29.0

CS(=O)(=O)Nc1cc2occ(NC=O)c(=O)c2cc1Oc1ccccc1 [(IX), N-(3-formylamino-4-oxo-6-phenoxy-4H-1-benzopyran-7-yl)methanesulfonamide]
Inhibition of mouse tumor cachexia and recovery of body weight loss (in words) [1]: inhibit mouse tumor cachexia and recover loss of average of body weight
Life-prolongation (in words) [2]: exhibit pronounced life-prolongation

Cc1cnc(NC(=O)C2=C(O)c3ccccc3S(=O)(=O)N2C)s1 [(VI), 4-hydroxy-2-methyl-N-(5-methylthiazol-2-yl)-2H-1,2-benzothiazine-3-carboxamide-1,1-dioxide]
Inhibition of mouse tumor cachexia and recovery of body weight loss (in words) [1]: inhibit mouse tumor cachexia and recover loss of average of body weight
Life-prolongation (in words) [2]: exhibit pronounced life-prolongation

CS(=O)(=O)Nc1ccc([N+](=O)[O-])cc1Oc1ccccc1 [(VII), N-(4-Nitro-2-phenoxyphenyl)methanesulfonamide]
Inhibition of mouse tumor cachexia and recovery of body weight loss (in words) [1]: inhibit mouse tumor cachexia and recover loss of average of body weight
Life-prolongation (in words) [2]: exhibit pronounced life-prolongation

Cc1nc(C2CCCCC2)c(-c2ccc(S(N)(=O)=O)c(F)c2)o1 [(VIII), 4-(4-cyclohexyl-2-methyloxazol-5-yl)-2-fluorobenzenesulfonamide]
Inhibition of mouse tumor cachexia and recovery of body weight loss (in words) [1]: inhibit mouse tumor cachexia and recover loss of average of body weight
Life-prolongation (in words) [2]: exhibit pronounced life-prolongation

CCN1CC/C(=C\c2cc(C(C)(C)C)c(O)c(C(C)(C)C)c2)S1(=O)=O [(X), (E)-2-ethyl-5-(3,5-di-t-butyl-4-hydroxy)benzylidene-1,2-isothiazolidine-1,1-dioxide]
Inhibition of mouse tumor cachexia and recovery of body weight loss (in words) [1]: inhibit mouse tumor cachexia and recover loss of average of body weight
Life-prolongation (in words) [2]: exhibit pronounced life-prolongation

CS(=O)(=O)c1ccc(C2=C(c3ccc(F)cc3)CCC2)cc1 [(XI), 1-(4-methanesulfonylphenyl)-2-(4-fluorophenyl)cyclopentene]
Inhibition of mouse tumor cachexia and recovery of body weight loss (in words) [1]: inhibit mouse tumor cachexia and recover loss of average of body weight
Life-prolongation (in words) [2]: exhibit pronounced life-prolongation

CS(=O)(=O)c1ccc(C2=C(c3ccccc3)C(=O)OC2)cc1 [(XII), 3-phenyl-4-(4-methanesulfonylphenyl)-5H-furan-2-one]
Inhibition of mouse tumor cachexia and recovery of body weight loss (in words) [1]: inhibit mouse tumor cachexia and recover loss of average of body weight
Life-prolongation (in words) [2]: exhibit pronounced life-prolongation

CS(=O)(=O)c1ccc(C2=C(c3cc(F)cc(F)c3)C(=O)CC2)cc1 [(XIII), 2-(3,5-difluorophenyl)-3-(4-methanesulfonylphenyl)-2-cyclopenten-1-one]
Inhibition of mouse tumor cachexia and recovery of body weight loss (in words) [1]: inhibit mouse tumor cachexia and recover loss of average of body weight
Life-prolongation (in words) [2]: exhibit pronounced life-prolongation

Cc1onc(-c2ccccc2)c1-c1ccc(S(N)(=O)=O)cc1 [(XIV), 4-[5-methyl-3-phenylisoxazol-4-yl)benzenesulfonamide]
Inhibition of mouse tumor cachexia and recovery of body weight loss (in words) [1]: inhibit mouse tumor cachexia and recover loss of average of body weight
Life-prolongation (in words) [2]: exhibit pronounced life-prolongation

CSc1ccc(-n2cc(C)cc2-c2ccc(S(N)(=O)=O)cc2)cc1 [Compound 1-94, 4-methyl-1-(4-methylthiophenyl)-2-(4-sulfamoylphenyl)pyrrole]
Body Weight Recovery Rate (%) ([1]; 1 mg/kg oral once per day): 78%
Weight Gain (Δg) ([1]; 1 mg/kg oral once per day): 2.2 g
Body Weight Recovery Rate (%) ([1]; 3 mg/kg oral once per day): 89%
Weight Gain (Δg) ([1]; 3 mg/kg oral once per day): 2.7 g
Body Weight Recovery Rate (%) ([1]; 10 mg/kg oral once per day): 98%
Weight Gain (Δg) ([1]; 10 mg/kg oral once per day): 3.1 g
Life-prolonging Index (%) [2, 4]: 67%
Survival Period (median: days) [2, 5]: 48.5 days
Life-prolonging Index (%) [2, 6]: 21%
Survival Period (median: days) [2, 7]: 35.0 days
Life-prolonging Index (%) [2, 8]: 55%
Survival Period (median: days) [2, 9]: 45.0 days

CCOc1ccc(-c2cc(C)cn2-c2ccc(S(N)(=O)=O)cc2)cc1 [Compound 2-78]
Body Weight Recovery Rate (%) ([1]; 1 mg/kg oral once per day): 85%
Weight Gain (Δg) ([1]; 1 mg/kg oral once per day): 2.5 g
Body Weight Recovery Rate (%) ([1]; 3 mg/kg oral once per day): 85%
Weight Gain (Δg) ([1]; 3 mg/kg oral once per day): 2.5 g
Body Weight Recovery Rate (%) ([1]; 10 mg/kg oral once per day): 88%
Weight Gain (Δg) ([1]; 10 mg/kg oral once per day): 2.6 g
Life-prolonging Index (%) [2, 4]: 55%
Survival Period (median: days) [2, 5]: 45.0 days
Life-prolonging Index (%) [2, 6]: 74%
Survival Period (median: days) [2, 7]: 50.5 days
Life-prolonging Index (%) [2, 8]: 67%
Survival Period (median: days) [2, 9]: 48.5 days

CS(=O)(=O)c1ccc(C2=C(c3ccc(F)c(F)c3)C(=O)OC2)cc1 [Compound (III), 3-(3,4-difluorophenyl)-4-(4-methanesulfonylphenyl)-5H-furan-2-one]
Average Weight Gain (Δg) ([1]; 1 mg/kg oral once per day): 0.0 g
Average Weight Gain (Δg) ([1]; 3 mg/kg oral once per day): 0.3 g
Average Weight Gain (Δg) ([1]; 10 mg/kg oral once per day): 0.9 g
Inhibition of mouse tumor cachexia and weight loss (in words) ([1]; Examples 1-3, 1-10 mg/kg oral): inhibited mouse tumor cachexia and reduced weight loss
Survival Period (median: days) ([2]; 1 mg/kg oral once daily, mice of Example 2 (16 weeks old), untreated 23.0): 40.5 days
Life-prolonging Index (%) ([2]; 1 mg/kg oral once daily, mice of Example 2): 76%
Survival Period (median: days) ([2]; 3 mg/kg oral once daily, mice of Example 2 (16 weeks old), untreated 23.0): 37.5 days
Life-prolonging Index (%) ([2]; 3 mg/kg oral once daily, mice of Example 2): 63%
Survival Period (median: days) ([2]; 10 mg/kg oral once daily, mice of Example 2 (16 weeks old), untreated 23.0): 43.5 days
Life-prolonging Index (%) ([2]; 10 mg/kg oral once daily, mice of Example 2): 91%

COc1ccc2c(c1)c(CC(=O)O)c(C)n2C(=O)c1ccc(Cl)cc1 [Indomethacin, reference compound]
Inhibition of lung metastasis (in words) ([3]; 1 mg/kg oral, lung metastasis accelerating conditions (LPS)): had no such inhibitory activity
LMI (%) lung metastasis inhibitory rate ([3]; LPS 3 μg i.v. before transplantation, 1 mg/kg per day oral for five days, colonies counted on 10th day, C57BL/6 mice): −1%
